Test results from PubChem BioAssay (NCI).
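96-well plates; 48 h exposure; 5 concentrations. Endpoints by linear interpolation between flanking doses. Not reached: highest tested concentration assigned. GI50 = concentration required for 50% inhibition of growth. At the TGI there is no net growth.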

Key:
Experiment in all cases: NCI anticancer screen, dose series, 48 h
[1] = tested on: MDA-N
[2] = tested on: OVCAR-4 ovarian
[3] = tested on: DU-145 prostate
[4] = tested on: NCI-H226 lung
[5] = tested on: BT-549 breast
[6] = tested on: LOX IMVI melanoma
[7] = tested on: ACHN renal
[8] = tested on: TK-10 renal
[9] = tested on: HCC-2998 colon
[10] = tested on: K-562 leukemia

COc1ccc(C2=[S+]C(c3ccccc3)(c3ccccc3)c3ccccc32)cc1
TGI [1]: 54.5 µM
TGI [2]: 62.2 µM
TGI [3]: 65.7 µM
TGI [4]: 31.3 µM
TGI [5]: 53.9 µM
TGI [6]: 31.9 µM
TGI [7]: 86.1 µM
TGI [8]: 73.3 µM
TGI [9]: > 100 µM
TGI [10]: > 100 µM

O=C1C(CO)=C[C@H](O)[C@H]2O[C@@H]12
TGI [2]: 317 µM
TGI [4]: 371 µM
TGI [6]: > 393 µM
TGI [9]: > 508 µM
TGI [10]: 439 µM

c1cc2c3c(c1)c1cc4c(cc1c[n+]3CC2)OCO4
TGI [2]: 47.7 µM
TGI [4]: 4.69 µM
TGI [6]: > 96.1 µM
TGI [9]: 10.4 µM
TGI [10]: 32.3 µM

c1ccc2c(c1)c1ccccc1n2Cn1c2ccccc2c2ccccc21
TGI [1]: > 100 µM
TGI [2]: > 100 µM
TGI [3]: > 100 µM
TGI [4]: > 100 µM
TGI [5]: > 100 µM
TGI [6]: > 100 µM
TGI [7]: > 100 µM
TGI [8]: > 100 µM
TGI [10]: > 100 µM

COc1cccc2c1C(=O)c1c(O)c3c(c(O)c1C2=O)C[C@@](O)(C(=O)COC(=O)c1ccccc1)C[C@@H]3OC1CC(N)C(O)C(C)O1 (some centres undefined)
GI50 [3]: 0.252 µM
TGI [3]: 1.1 µM
GI50 [5]: 0.7 µM
TGI [5]: 2.32 µM
GI50 [7]: 0.0925 µM
TGI [7]: 0.457 µM
GI50 [8]: 0.151 µM
TGI [8]: 0.879 µM
GI50 [9]: 0.421 µM
TGI [9]: 2.32 µM
GI50 [10]: 0.104 µM
TGI [10]: 0.327 µM

Cc1ccc(Cl)cc1N=NC(=O)NNc1cc(Cl)ccc1C
TGI [1]: > 100 µM
TGI [3]: 58.3 µM
TGI [4]: 43.1 µM
TGI [5]: 43.9 µM
TGI [9]: > 100 µM
TGI [10]: > 100 µM

O=C(NN1C(=O)C(Cl)C1c1cccc([N+](=O)[O-])c1)c1ccccc1O (centres undefined)
TGI [2]: > 100 µM
TGI [8]: > 100 µM
TGI [10]: > 100 µM

COc1cc(-c2ccc(N=Nc3ccc4c(S(=O)(=O)O)cc(S(=O)(=O)O)c(N)c4c3O)c(OC)c2)ccc1N=Nc1ccc2c(S(=O)(=O)O)cc(S(=O)(=O)O)c(N)c2c1O
TGI [2]: > 100 µM
TGI [4]: > 100 µM
TGI [6]: > 100 µM
TGI [9]: > 100 µM
TGI [10]: > 100 µM

O=c1nc2ccc([N+](=O)[O-])cc2[n+]([O-])[nH]1
TGI [1]: > 100 µM
TGI [2]: > 100 µM
TGI [3]: > 100 µM
TGI [4]: > 100 µM
TGI [5]: > 100 µM
TGI [6]: > 100 µM
TGI [7]: > 100 µM
TGI [8]: > 100 µM
TGI [9]: > 100 µM
TGI [10]: > 100 µM

CCOc1cc(/C=C/C(=O)C(C(=O)/C=C/c2ccc(OC(=O)CNc3nc4ccccc4[nH]3)c(OCC)c2)C(=O)CNc2nc3ccccc3[nH]2)ccc1OC(=O)CNc1nc2ccccc2[nH]1
GI50 [2]: 3.39 µM
TGI [2]: 22.7 µM
GI50 [3]: 1.7 µM
TGI [3]: 3.72 µM
GI50 [4]: 2.07 µM
TGI [4]: 5.67 µM
GI50 [5]: 1.45 µM
TGI [5]: 3.13 µM
GI50 [6]: 1.66 µM
TGI [6]: 3.02 µM
GI50 [7]: 2.31 µM
TGI [7]: 6.68 µM
GI50 [8]: 3.24 µM
TGI [8]: 14.2 µM
GI50 [9]: 1.69 µM
TGI [9]: 3.22 µM
GI50 [10]: 1.44 µM
TGI [10]: 2.75 µM

c1ccc2c(c1)NCc1cc3ccccc3nc1O2
TGI [2]: > 100 µM
TGI [4]: > 100 µM
TGI [6]: > 100 µM
TGI [9]: > 100 µM
TGI [10]: > 100 µM

C/C(=N\NC(=O)c1ccc(Cl)cc1)c1nc2ncccc2[nH]1
TGI [1]: > 100 µM
TGI [2]: 47.9 µM
TGI [3]: > 100 µM
TGI [5]: 85.5 µM
TGI [6]: 57.8 µM
TGI [7]: 44.7 µM
TGI [8]: 64.9 µM
TGI [9]: > 100 µM
TGI [10]: > 100 µM

O=C(N/N=C\c1cccc2ccccc12)Nc1ccccc1
TGI [1]: > 100 µM
TGI [2]: > 100 µM
TGI [3]: > 100 µM
TGI [4]: > 100 µM
TGI [5]: > 100 µM
TGI [6]: > 100 µM
TGI [8]: > 100 µM
TGI [10]: > 100 µM

O=C1CCC[C@H]2O[C@@H](COC(=O)c3ccccc3)C[C@H]2O1
TGI [1]: > 100 µM
TGI [2]: > 100 µM
TGI [3]: > 100 µM
TGI [4]: > 100 µM
TGI [7]: > 100 µM
TGI [10]: > 100 µM

Cc1cc(N/N=C/c2nc(-c3ccc(Cl)cc3)oc2C)c2cc(Br)ccc2n1
GI50 [2]: 1.87 µM
TGI [2]: 3.69 µM
GI50 [3]: 2.66 µM
TGI [3]: 7.67 µM
GI50 [4]: 17.4 µM
TGI [4]: 50.4 µM
GI50 [5]: 6.91 µM
TGI [5]: 19.9 µM
GI50 [6]: 1.93 µM
TGI [6]: 3.73 µM
GI50 [7]: 2.25 µM
TGI [7]: 5.01 µM
GI50 [8]: 1.8 µM
TGI [8]: 3.49 µM
GI50 [9]: 3.58 µM
TGI [9]: 12.5 µM
GI50 [10]: 1.1 µM
TGI [10]: 3.61 µM
